Measurements reported in patent US20090186835A1, “TREATMENT AND PROPHYLAXIS OF CANCER” (priority 2008, published 2009).
Read-outs that look alike come from different tables or passages of the source.

Columns and labels:
[1] = system: human pancreatic carcinoma cells (HPAC)
Experimental: (§1) The pancreatic cancer cell line, human pancreatic carcinoma cells (HPAC), was obtained from American Tissue and Cell Culture and cultured in complete media according to American Tissue and Cell Culture guidelines in T-75-cm^2 flasks in a 37° C. incubator with 5% CO2. HPAC cells were grown in Dulbecco's modified Eagle's medium with Ham F-12, 5% fetal bovine serum, 5% penicillin/streptomycin, 0.002 mg/mL insulin, 0.005 mg/mL transferrin, 40 ng/mL hydrocortisone, and 10 ng/mL epidermal growth factor.
(§2) 1×10^4 HPAC cells were aliquoted into each well of a 96-well plate and served as target cells. They were plated in phenol red dye-free RPMI 1640 (HyClone, Logan, Utah) complete medium (1 mM L-glutamine, 100 U/mL penicillin, 100 μg/mL streptomycin, 5% heat-inactivated fetal bovine serum; Gibco-BRL, Grand Island, N.Y.) and incubated with either natural mixture or sophorolipid derivative in increasing concentrations (0, 50, 100, 150, 200 mg; 100 μL final volume) at 37° C. with 5% CO2 overnight.
(§3) Assays were carried out using a CytoTox 96 Non-Radioactive Cytotoxicity Assay (Promega, Woodshole, Mass.), in accordance with manufacturer's directions. This assay measures lactate dehydrogenase (LDH) release by target cells, after conversion of a tetrazolium salt into a formazan red product. Cytotoxicity as measured by LDH release is considered an effective measure of determining cellular necrosis. Sophorolipid mixtures or derivatives (0, 50, 100, 150, 200 mg) were added to 96-well tissue culture plates (Fisher Scientific, Springfield, N.J.) containing HPAC cells (100 μL final volume) and incubated at 37° C., 5% CO2, for 20 h. To establish maximum lysis, lysing solution (9% v/v Triton-X 100; 10 μL) was added to representative culture wells containing HPAC cells. After incubation, supernatant (50 μL) was transferred to a fresh 96-well plate. Chromogenic substrate solution (50 μL) was added to each well while the plates were incubated in the dark at RT for 30 min, after which stop solution (1M NaAc; 50 μL) was added to each well to stop the reaction.
(§4) Cytotoxicity as measured by LDH release was determined by spectrophotometry at 450 nm (Bio-Tek Instruments Inc., Winooski, Vt.). […] Data shown represent the mean of at least three experiments±SE and are expressed as percentage cytotoxicity. Background controls were corrected for and consisted of target cell spontaneous (HPACs in media) and target cell maximum (HPACs in media with 10 μL lysis solution). Target cell maximum was corrected for by a volume control (media with 10 μL lysis solution). Each experiment was corrected for by a sophorolipid control (sophorolipid in media). These controls were incubated on the same 96-well plate as experimental assays. Percent (%) cytotoxicity was calculated according to the general equation below:
(§5) Values for results were expressed as means±SE obtained from multiple determinations in three or more separate experiments. P values computed were two-tailed, and P<0.05 was considered statistically significant (Student's t-test, analysis of variance with Tukey post-hoc correction; SPSS version 10.0, Chicago, Ill.).

[2] = system: Human pancreatic carcinoma (HPAC) cells; assay: Apoptosis (annexin) in HPAC cells; assay type: cell-based; conditions: 0.5-2.0 mg/ml, 24 hours
Experimental: The sophorolipid mixtures of the present invention have anti cancer properties, which were confirmed by experiment and observations. […] Controls consisted of cells treated with media or vehicle alone and sophorolipids treatment of peripheral blood mononuclear cells (PBMC). AS mediated toxicity was inversely proportional with dose (LSD—40.3% at 0.5 mg/ml, 3.4% at 2.0 mg/ml, AS 49% at 0.5 mg/ml, 0% at 2.0 mg/ml).

[3] = system: human pancreatic carcinoma cells (HPAC); assay: CytoTox 96 LDH release cytotoxicity assay on HPAC cells
Experimental: as §1, §2, §3, §4, §5

## acidic sophorolipid [AS]
[1]
  dose dependence of the cytotoxic response: inversely proportional to dose
[2]
  apoptosis (annexin): Dose dependant apoptosis could be observed

## CC(=O)OC[C@H]1O[C@H]2OC(C)CCCCCC/C=C\CCCCCCCC(=O)O[C@H]3[C@H](O)[C@@H](O)[C@H](O[C@@H]2[C@@H](O)[C@@H]1O)O[C@@H]3COC(C)=O (stereo partly drawn) [LSD, lactonic sophorolipid diacetate]
[3]; HPAC cells cultured with 100 μg of sophorolipid natural mixture or derivative, FIG. 2
  percent cytotoxicity (LDH release): 26.2%
[3]; HPAC cells, 0.5 mg/mL
  percent cytotoxicity (LDH release): 40.3%
[3]; HPAC cells, 2.0 mg/mL
  percent cytotoxicity (LDH release): 3.4%
[3]; HPAC cells, 0.5-2.0 mg/ml, in words
  dose dependence of the cytotoxic response: inversely proportional to dose
